Measurements: patent publication US8106048B2, “Heterocyclic NF-κB inhibitors” (4SC AG, priority 2004, dated 2012)

Each molecule was assayed on A549-NF-κB-SEAP reporter cells (assay: Inhibition of NF-κB-induced inflammation: […] NINA Instant Assay, TNF-α stimulated SEAP reporter). Details: % inhibition classes.
Format: cell-based
Summary of the method: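 A549 cells carrying an NF-κB-driven SEAP reporter were pretreated with compound (0.01–100 μM) for 4.5 h, then stimulated with 2 ng/ml TNF-α for 22 h. After inactivation of endogenous phosphatases, SEAP activity was read by CSPD chemiluminescence (40 min). EC50 values were fitted from quadruplicate data points.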

Row | Compound | Biological activity (inhibition in the NF-κB inflammation assay)
1 | O=C(c1csc(C2CCN(S(=O)(=O)c3c(Cl)nc4sccn34)CC2)n1)N1CCN(c2cccc(C(F)(F)F)c2)CC1 [compound 197] | + (“+” stands for 50-80% inhibition)
2 | O=C(c1csc(C2CCN(S(=O)(=O)Cc3ccccc3)CC2)n1)N1CCN(c2cccc(C(F)(F)F)c2)CC1 [compound 198] | + (“+” stands for 50-80% inhibition)
3 | O=C(c1csc(C2CCN(S(=O)(=O)c3ccc(Br)cc3)CC2)n1)N1CCN(c2cccc(C(F)(F)F)c2)CC1 [compound 199] | + (“+” stands for 50-80% inhibition)
4 | O=C(c1csc(C2CCN(S(=O)(=O)c3ccc(Cl)cc3Cl)CC2)n1)N1CCN(c2cccc(C(F)(F)F)c2)CC1 [compound 200] | ×
5 | O=C(c1csc(C2CCN(S(=O)(=O)c3cc(C(F)(F)F)cc(C(F)(F)F)c3)CC2)n1)N1CCN(c2cccc(C(F)(F)F)c2)CC1 [compound 201] | ++ (“++” means 80-90%)
6 | COc1ccc(Cl)cc1S(=O)(=O)N1CCC(c2nc(C(=O)N3CCN(c4cccc(C(F)(F)F)c4)CC3)cs2)CC1 [compound 202] | ++ (“++” means 80-90%)
7 | O=C(c1csc(C2CCN(S(=O)(=O)c3ccc(Br)s3)CC2)n1)N1CCN(c2cccc(C(F)(F)F)c2)CC1 [compound 203] | + (“+” stands for 50-80% inhibition)
8 | Cc1ccc(S(=O)(=O)N2CCC(c3nc(C(=O)N4CCN(c5cccc(C(F)(F)F)c5)CC4)cs3)CC2)cc1 [compound 204] | + (“+” stands for 50-80% inhibition)
9 | O=C(c1csc(C2CCN(S(=O)(=O)c3ccc(OC(F)(F)F)cc3)CC2)n1)N1CCN(c2cccc(C(F)(F)F)c2)CC1 [compound 205] | + (“+” stands for 50-80% inhibition)
10 | O=C(c1csc(C2CCN(S(=O)(=O)c3ccc(Cl)cc3)CC2)n1)N1CCN(c2cccc(C(F)(F)F)c2)CC1 [compound 206] | + (“+” stands for 50-80% inhibition)
11 | CC(=O)Nc1ccc(S(=O)(=O)N2CCC(c3nc(C(=O)N4CCN(c5cccc(C(F)(F)F)c5)CC4)cs3)CC2)cc1 [compound 207] | + (“+” stands for 50-80% inhibition)
12 | O=C(c1csc(C2CCN(S(=O)(=O)c3ccccc3)CC2)n1)N1CCN(c2cccc(C(F)(F)F)c2)CC1 [compound 208] | + (“+” stands for 50-80% inhibition)
13 | COc1cccc(C(=O)N2CCC(c3nc(C(=O)N4CCN(c5cccc(C(F)(F)F)c5)CC4)cs3)CC2)c1 [compound 209] | + (“+” stands for 50-80% inhibition)
14 | CN1CCOc2cc(C(=O)N3CCC(c4nc(C(=O)N5CCN(c6cccc(C(F)(F)F)c6)CC5)cs4)CC3)ccc21 [compound 210] | ++ (“++” means 80-90%)
15 | O=C(c1ccc2nccnc2c1)N1CCC(c2nc(C(=O)N3CCN(c4cccc(C(F)(F)F)c4)CC3)cs2)CC1 [compound 211] | + (“+” stands for 50-80% inhibition)
16 | O=C(c1csc(C2CCN(C(=O)c3cccs3)CC2)n1)N1CCN(c2cccc(C(F)(F)F)c2)CC1 [compound 212] | + (“+” stands for 50-80% inhibition)
17 | O=C(c1csc(C2CCN(C(=O)c3cc4ccccc4s3)CC2)n1)N1CCN(c2cccc(C(F)(F)F)c2)CC1 [compound 213] | ++ (“++” means 80-90%)
18 | O=C(C=Cc1ccccc1)N1CCC(c2nc(C(=O)N3CCN(c4cccc(C(F)(F)F)c4)CC3)cs2)CC1 [compound 214] | ++ (“++” means 80-90%)
